{"source": "paper PMC6980506", "about": "“Comparative pharmacokinetics and pharmacodynamics of the advanced Retinol-Binding Protein 4 antagonist in dog and cynomolgus monkey” (PLoS ONE, 2020)", "key": {"[1]": {"assay": "Metabolic clearance in human hepatocytes", "assay_type": "in vitro ADME", "conditions": "cryopreserved hepatocytes, read-out: Hepatocyte CLint (intrinsic clearance)", "procedure": "All measurements were done in duplicate. Testosterone and 7-hydroxycoumarin were used as positive controls. Pooled cryopreserved human hepatocytes, cryopreserved male beagle dog hepatocytes, and cryopreserved male cynomolgus monkey hepatocytes were obtained from BioIVT (Baltimore, MD). Compound at 1 μM was incubated with 1 x 10^6 cells. Final DMSO concentration in the reaction mix was 0.1%. Aliquots (100 μL) of reaction mixtures were removed from the incubation plate at different timepoints and mixed with 150 μL of ice-cold acetonitrile. After incubation on ice for 15 min, the samples were centrifuged (3,600 rpm, 10 min, 4°C) to precipitate protein. The supernatants were diluted 1:1 (v/v) with water containing internal standards and subjected to the LC/MS analysis. Hepatic clearance was calculated using the well-stirred liver model"}, "[2]": {"assay": "Single dose pharmacokinetic study in beagle dog", "assay_type": "in vivo", "procedure": "Pharmacokinetic studies were conducted in male beagle dogs and male cynomolgus monkeys at SRI International, Menlo Park, CA. General procedures for animal care and housing were in accordance with the National Research Council (NRC) Guide for the Care and Use of Laboratory Animals (1996) and the Animal Welfare Standards incorporated in 9 CFR Part 3, 1991 and complied with guidelines set forth by the ARVO Animal Statement for the Use of Animals in Ophthalmic and Vision Research. During the course of the PK experiments, cynomolgus monkeys were individually housed in stainless steel primary enclosures in an AAALAC-accredited facility. Animals were fed a commercial monkey chow, and supplemental food was provided (fresh fruits, vegetables, seeds, and nuts). Reverse osmosis-purified drinking water was available at all times. Cynomolgus monkeys were maintained on a 12:12 hour light:dark cycle at the 64–84°F temperature and 30–70% humidity. Monkeys had access to enrichment opportunities (grooming devices, foraging devices, activity panels and mirrors) and were provided auditory stimuli and human interaction enrichment throughout the study. Blood samples were collected by venipuncture of a peripheral vein. Animals were acclimated to the squeeze back mechanism in their home cage by repeated, short periods of restraint during general husbandry procedures for at least 2 weeks prior to dosing. Animal were not removed from their cages for collection, and no anesthesia/analgesic agents were used for blood collection. […] For PK experiments, beagle dogs were individually housed in enclosed run (≥ 4 ft x 6 ft). Dogs were exposed to their daily ration of food, Harlan Teklad 2025C Certified Global 25% Protein Dog Diet. Water was provided from the public water supply (municipal tap water) ad libitum. Dogs were maintained on a 12:12 hour light:dark cycle at the 72–73°F temperature and 40–71% humidity. Every effort was made to minimize, if not eliminate, pain and suffering in all animals in this study. No restraining devices were used in blood collecting procedures. Dogs were gentle hand-held to restrain by trained technicians with the dogs foreleg extended for sample collection of blood from cephalic vein. Animals were awake during blood sample collection with no anesthesia/analgesic agents used, and positive reinforcement by the technician was provided following collection. […] All dogs were released back to the colony after the study was completed. Male beagle dogs and male cynomolgus monkey received a single i.v. dose of a test compound at 0.5 mg kg^−1 (dog) and 1 mg kg^−1 (monkey) or a single p.o. dose of a test compound of at 2 mg kg^−1 (dog) and 5 mg kg^−1 (monkey). The number of animals that was used in PK experiments is 3 per study group. Intravenous administration vehicle was 3% DMA/45% PEG300/12% ethanol/40% sterile water; p.o. vehicle was 2% Tween 80 in 0.9% saline. […] Blood samples were processed to plasma. Following protein extraction with acetonitrile, compound concentrations in plasma were measured by LC-MS/MS. The plasma drug level data were analyzed using WinNonlin software package; Model 201 (for i.v. bolus administration);was used for the analysis of i.v. data, and Model 200 (for extravascular administration) was used for the analysis of the p.o. data. Aliquots of pre-dose plasma samples, as well as aliquots of plasma PK samples, were used for the analysis of the plasmabiomarker, RBP4."}}, "note": "Where “and” joins values, the source holds several entries; their conditions need not be identical. Identical values can stand only once. Like-named read-outs stand apart in the source and are kept apart here."}
{"smiles": "Cc1cc(C(=O)O)nc(N2C[C@H]3C[C@@H](c4ccccc4C(F)(F)F)C[C@H]3C2)n1", "note": "[BPN-14136]", "values": [{"measurement": "hepatocyte CLint at 1 μM", "setting": "[1]", "result": "< 0.7", "unit": "µL/min/1e6 cells"}, {"measurement": "%F, bioavailability", "setting": "[2]; Dog, 2.0 mg kg^−1 p.o. vs 0.5 mg kg^−1 i.v.", "result": "84.2 ± 10.4", "unit": "%"}, {"measurement": "plasma concentrations of compound", "setting": "[2]; dog plasma at 24, 36, and 48 hours after 2 mg kg^−1 oral dosing", "result": "0.07 to 0.5", "unit": "µg/mL"}, {"measurement": "Plasma level, Individual animals", "setting": "[2]; male beagle dog, iv 0.5 mg/kg, 0.083 hr, 0.5 mg/kg", "result": "2750 ng/mL and 2650 ng/mL"}, {"measurement": "Plasma level, Individual animals", "setting": "[2]; male beagle dog, iv 0.5 mg/kg, 0.25 hr, 0.5 mg/kg", "result": "2090 ng/mL and 2140 ng/mL"}, {"measurement": "Plasma level, Individual animals", "setting": "[2]; male beagle dog, iv 0.5 mg/kg, 0.5 hr, 0.5 mg/kg", "result": "1820 ng/mL and 1800 ng/mL"}, {"measurement": "Plasma level, Individual animals", "setting": "[2]; male beagle dog, iv 0.5 mg/kg, 1 hr, 0.5 mg/kg", "result": "1270 ng/mL and 1380 ng/mL"}, {"measurement": "Plasma level, Individual animals", "setting": "[2]; male beagle dog, iv 0.5 mg/kg, 2 hr, 0.5 mg/kg", "result": "1060 ng/mL and 1000 ng/mL"}, {"measurement": "Plasma level, Individual animals", "setting": "[2]; male beagle dog, iv 0.5 mg/kg, 4 hr, 0.5 mg/kg", "result": "492 ng/mL and 458 ng/mL"}, {"measurement": "Plasma level, Individual animals", "setting": "[2]; male beagle dog, iv 0.5 mg/kg, 6 hr, 0.5 mg/kg", "result": "284 ng/mL and 281 ng/mL"}, {"measurement": "Plasma level, Individual animals", "setting": "[2]; male beagle dog, iv 0.5 mg/kg, 8 hr, 0.5 mg/kg", "result": "203 ng/mL and 207 ng/mL"}, {"measurement": "Plasma level, Individual animals", "setting": "[2]; male beagle dog, iv 0.5 mg/kg, 12 hr, 0.5 mg/kg", "result": "69.2 ng/mL and 141 ng/mL and 111 ng/mL"}, {"measurement": "Plasma level, Individual animals", "setting": "[2]; male beagle dog, iv 0.5 mg/kg, 24 hr, 0.5 mg/kg", "result": "186 ng/mL and 171 ng/mL"}, {"measurement": "Plasma level, Individual animals", "setting": "[2]; male beagle dog, iv 0.5 mg/kg, 36 hr, 0.5 mg/kg", "result": "47.1 ng/mL and 42.5 ng/mL"}, {"measurement": "Plasma level, Individual animals", "setting": "[2]; male beagle dog, iv 0.5 mg/kg, 48 hr, 0.5 mg/kg", "result": "102 ng/mL and 93.0 ng/mL"}, {"measurement": "Plasma level, Individual animals", "setting": "[2]; male beagle dog, po 2 mg/kg, 0.25 hr, 2 mg/kg", "result": "9280 ng/mL and 4890 ng/mL"}, {"measurement": "Plasma level, Individual animals", "setting": "[2]; male beagle dog, po 2 mg/kg, 0.5 hr, 2 mg/kg", "result": "7730 ng/mL and 6080 ng/mL"}, {"measurement": "Plasma level, Individual animals", "setting": "[2]; male beagle dog, po 2 mg/kg, 1 hr, 2 mg/kg", "result": "6080 ng/mL and 5100 ng/mL"}, {"measurement": "Plasma level, Individual animals", "setting": "[2]; male beagle dog, po 2 mg/kg, 2 hr, 2 mg/kg", "result": "4460 ng/mL and 4300 ng/mL"}, {"measurement": "Plasma level, Individual animals", "setting": "[2]; male beagle dog, po 2 mg/kg, 4 hr, 2 mg/kg", "result": "2560 ng/mL and 2080 ng/mL"}, {"measurement": "Plasma level, Individual animals", "setting": "[2]; male beagle dog, po 2 mg/kg, 8 hr, 2 mg/kg", "result": "971 ng/mL and 885 ng/mL"}, {"measurement": "Plasma level, Individual animals", "setting": "[2]; male beagle dog, po 2 mg/kg, 10 hr, 2 mg/kg", "result": "581 ng/mL and 690 ng/mL"}, {"measurement": "Plasma level, Individual animals", "setting": "[2]; male beagle dog, po 2 mg/kg, 12 hr, 2 mg/kg", "result": "391 ng/mL and 753 ng/mL"}, {"measurement": "Plasma level, Individual animals", "setting": "[2]; male beagle dog, po 2 mg/kg, 24 hr, 2 mg/kg", "result": "542 ng/mL and 277 ng/mL"}, {"measurement": "Plasma level, Individual animals", "setting": "[2]; male beagle dog, po 2 mg/kg, 36 hr, 2 mg/kg", "result": "95.3 ng/mL and 105 ng/mL"}, {"measurement": "Plasma level, Individual animals", "setting": "[2]; male beagle dog, po 2 mg/kg, 48 hr, 2 mg/kg", "result": "152 ng/mL and 160 ng/mL and 67.0 ng/mL"}, {"measurement": "concentration at 0.083 h", "setting": "[2]; male, beagle, dog, plasma, iv, 0.5 mg/kg, male beagle dog, iv 0.5 mg/kg, 0.083 hr, read-out: Plasma level, Individual animals", "result": 2660, "unit": "ng/mL"}, {"measurement": "concentration at 0.083 h", "setting": "[2]; male, beagle, dog, plasma, iv, 0.5 mg/kg, male beagle dog, iv 0.5 mg/kg, 0.083 hr, read-out: Plasma level, Mean", "result": 2690, "unit": "ng/mL"}, {"measurement": "concentration at 0.25 h", "setting": "[2]; male, beagle, dog, plasma, iv, 0.5 mg/kg, male beagle dog, iv 0.5 mg/kg, 0.25 hr, read-out: Plasma level, Individual animals", "result": 2000, "unit": "ng/mL"}, {"measurement": "concentration at 0.25 h", "setting": "[2]; male, beagle, dog, plasma, iv, 0.5 mg/kg, male beagle dog, iv 0.5 mg/kg, 0.25 hr, read-out: Plasma level, Mean", "result": 2080, "unit": "ng/mL"}, {"measurement": "concentration at 0.5 h", "setting": "[2]; male, beagle, dog, plasma, iv, 0.5 mg/kg, male beagle dog, iv 0.5 mg/kg, 0.5 hr, read-out: Plasma level, Individual animals", "result": 1690, "unit": "ng/mL"}, {"measurement": "concentration at 0.5 h", "setting": "[2]; male, beagle, dog, plasma, iv, 0.5 mg/kg, male beagle dog, iv 0.5 mg/kg, 0.5 hr, read-out: Plasma level, Mean", "result": 1770, "unit": "ng/mL"}, {"measurement": "concentration at 1 h", "setting": "[2]; male, beagle, dog, plasma, iv, 0.5 mg/kg, male beagle dog, iv 0.5 mg/kg, 1 hr, read-out: Plasma level, Individual animals", "result": 1500, "unit": "ng/mL"}, {"measurement": "concentration at 1 h", "setting": "[2]; male, beagle, dog, plasma, iv, 0.5 mg/kg, male beagle dog, iv 0.5 mg/kg, 1 hr, read-out: Plasma level, Mean", "result": 1380, "unit": "ng/mL"}, {"measurement": "concentration at 2 h", "setting": "[2]; male, beagle, dog, plasma, iv, 0.5 mg/kg, male beagle dog, iv 0.5 mg/kg, 2 hr, read-out: Plasma level, Individual animals", "result": 1020, "unit": "ng/mL"}, {"measurement": "concentration at 2 h", "setting": "[2]; male, beagle, dog, plasma, iv, 0.5 mg/kg, male beagle dog, iv 0.5 mg/kg, 2 hr, read-out: Plasma level, Mean", "result": 1030, "unit": "ng/mL"}, {"measurement": "concentration at 4 h", "setting": "[2]; male, beagle, dog, plasma, iv, 0.5 mg/kg, male beagle dog, iv 0.5 mg/kg, 4 hr, read-out: Plasma level, Individual animals", "result": 442, "unit": "ng/mL"}, {"measurement": "concentration at 4 h", "setting": "[2]; male, beagle, dog, plasma, iv, 0.5 mg/kg, male beagle dog, iv 0.5 mg/kg, 4 hr, read-out: Plasma level, Mean", "result": 464, "unit": "ng/mL"}, {"measurement": "concentration at 6 h", "setting": "[2]; male, beagle, dog, plasma, iv, 0.5 mg/kg, male beagle dog, iv 0.5 mg/kg, 6 hr, read-out: Plasma level, Individual animals", "result": 308, "unit": "ng/mL"}, {"measurement": "concentration at 6 h", "setting": "[2]; male, beagle, dog, plasma, iv, 0.5 mg/kg, male beagle dog, iv 0.5 mg/kg, 6 hr, read-out: Plasma level, Mean", "result": 291, "unit": "ng/mL"}, {"measurement": "concentration at 8 h", "setting": "[2]; male, beagle, dog, plasma, iv, 0.5 mg/kg, male beagle dog, iv 0.5 mg/kg, 8 hr, read-out: Plasma level, Individual animals", "result": 217, "unit": "ng/mL"}]}
